Source: patent publication US6881824B1, “Peptides suitable for use in antigen specific immunosuppressive therapy” (Akzo Nobel N.V., priority 1996, dated 2005)
Ends that are not written are not given here.

B1: HC gp-39 peptide 34 (residues 220-235) (peptide)
peptide: SPLFRGQEDASPDRFS
B2: HC gp-39 peptide 2 (residues 28-43) (peptide)
peptide: YTSWSQYREGDGSCFP
B3: HC gp-39 peptide 12 (residues 88-103) (peptide)
peptide: PNLKTLLSVGGWNFGS

Key:
[1] = molecular target: T1, DR4 (DRB1*0401) molecules (Homo sapiens, UniProt P01903+P01911, A100K/A169T/F76Y/I96L/K127E/L162R/M171V/N62H/P40V/Q125Y/R42H/S133A/S149N/S66Y/V115G/V209L/W38E); experiment: Peptide HLA-DR binding assay (semi-quantitative competition binding); conditions: for IC50: Table IIIA, competition with biotinylated marker peptide HA 309 Y→F, pH5.0, 44 hr RT
T1 construct: molecules were purified from the homozygous EBV-transformed human B lymphoblastoid cell lines Huly138IC2 and BM92 using the mAb; endogenous in cells
Experimental: DR4 (DRB1*0401) and DR4 (DRB1*0404) molecules were purified from the homozygous EBV-transformed human B lymphoblastoid cell lines Huly138IC2 and BM92 using the mAb t243, directed against a monomorphic determinant on the DR-complex (Lampson, L. A and R. Levy (1980), J. Immunol. 125:293 299).
The peptide binding studies were performed using a semi-quantitative competition binding assay (Joosten et al 1994, Int. Immunol. 6, 751). Briefly, purified HLA-DR molecules (30 nM DR4(DRB1*0401) or 15 nM DR4 (DRB1*0404) were incubated at pH5.0 with 50 nM biotinylated marker peptide (HA 309y→F) and a concentration range of competitor peptide in a final volume of 25 μl binding buffer (PBS containing 0.01% […], 0.05% NP-40, 5% DMSO, 1 mM AEBSF, 1 mM N-ethyl maleimide, 8 mM EDTA and 10 μm pepstatin A). After 44 hr of incubation at RT, HLA DR bound marker peptide was separated from free marker peptide using a 96 well vacuum dotblot apparatus (Hybri. dot, BRL) and a nitrocellulose membrane (Hybond ECL, Amersham, UK). The nitrocellulose filters were blocked with 0.5% DNA blocking reagent (Boehringer) in 0.1 M maleic acid, 150 mM NaCl, pH7.5.
After 0.5-1 hr, the filters were washed in PBS, 0.05% Tween 20 (Sigma) and incubated with Strepcavidin-HRPO (Southern Biotechnology) in a 1:10.000 dilution. Biotinylated peptides were detected by enhanced chemiluminescence using a Western Blot ECL kit (Amersham). Exposure of the preflashed films (Hyperfilm-ECL, Amersham) was for 10 min. The spots were analysed by scanning the films and using Image Quant/Excel software for analysis.
The affinity of a given peptide for binding DRB1*0401-encoded molecules was related to competition with the marker peptide. This relative binding affinity was defined as the peptide concentration at which the signal was reduced to 50% (IC50).

[2] = test system: PBMC from RA patients carrying the DR4 (DRB1*0401) specificity; experiment: Peptide-induced proliferative responses of PBMC from RA patients; type: cell-based, human; conditions: 100 and 10 microgram/ml, 7 days, 3H-thymidine incorporation; for Peptide-induced proliferative response of PBMC, RA 286: RA patient 286, 0401, R; for Peptide-induced proliferative response of PBMC, RA 191: RA patient 191, 0401, R
Experimental: This study included 7 DR4(DRB1*0401)-positive patients diagnosed as suffering from RA according to the ARA criteria (Arnett et al., (1988), Arthritis Rheum. 31, 315). Peripheral blood samples were obtained with informed consent. There were five women and two men aged 46-79 years. Their duration of disease ranged from over 10 to over 30 years. Three out of 7 patients had at least 3 swollen joints. […] All patients were on medication: Four patients were treated with prednisone, three patients received anti-rheumatic agents and 4 patients were treated with NSAID's as well.
In order to identify T-cell epitopes within HC gp-39, 59 peptides of 16 AA in length, overlapping by 10 AA were tested for their capacity to induce a proliferative response in PBMC from RA patients and healthy controls carrying the DR4 (DRB1*0401) specificity (Table 1).
PBMC obtained from heparinized venous peripheral blood were isolated by standard centrifugation on a Ficoll-Paque gradient. Cells were cultured in four-fold at a concentration of 1,5×10^5 cells/well in medium supplemented with 10% heat-inactivated, autologous plasma, L-glutamine, 2-ME and antibiotics in flatbottomed microtiter plates. Cells were incubated in medium alone or in the presence of phytohaemagglutinin (PHA) (2:5 μg/ml) to assert cell viability, or in the presence of 10 or 100 μg/ml of the HC gp-39-derived peptides. In several cases, sets of 2 or 3 sequential peptides were tested due to limited PBMC numbers of individual donors. Cultures were incubated in a total volume of 210 μl for 7 days at […] in a humidified atmosphere of 5% CO2. Cultures were pulsed during the last 18 hours with 0.25 μCi ^3H-thymidine ([^3H]TdR). Cells were harvested on glassfiber filters and [^3H] TdR incorporation was measured by gas scintillation (Packard Matrix 96 βcounter). Only peptides inducing a proliferative response at both 10 and 100 μg/ml were considered to contain a T-cell epitope. Responses were defined positive if stimulation index values (SI, antigen-specific counts per 5 min (cp5 m)/background cp5 m) exceeded or equaled 2.
T-cell reactivity to HC gp-39-derived peptide as analyzed by measuring the PBMC proliferative response in DR4 (DRB1*0401)-positive RA patients and healthy donors. Proliferative responses were tested in autologous plasma. In Table IIIA and IIIB the results of 7 experiments are presented showing the responses of RA patients (Table IIIA) and the responses of healthy donors (Table IIIB) to 59 overlapping sequences derived from HC gp-39.

[3] = molecular target: T2, DR4 (DRB1*0401) molecules purified from the homozygous EBV-transformed human B lymphoblastoid cell line … (human, UniProt P01903 26-254); experiment: competition binding assay on purified DR4(DRB1*0401)
T2 construct: mature; That form is inferred from purification of the native complex

| Molecule | Relative affinity of binding to DR4 (DRB1*0401), in words [1] | IC50 [1] [µM] | further results |
| --- | --- | --- | --- |
| DFQGSFCGQDLRFPLT [compound 57, DFQGSFCGQDLRFPLT] | high to intermediate relative affinity | 1 to 10 |  |
| DIAKISQHLDFISIMT [compound 29, DIAKISQHLDFISIMT] | high to intermediate relative affinity | < 1 | Peptide-induced proliferative response of PBMC, RA 259 ([2]; RA patient 259, 0401, R): pos (positive responses to both 100 and 10 microgram/ml of peptide or sets of peptides (SI≧2 were regarded positive)) |
| DLAWLYPGRRDKQHFT [peptide 20, DLAWLYPGRRDKQHFT] | poor relative affinity | 100 to 1000 | Peptide-induced proliferative response of PBMC, RA 286 [2]: pos (positive responses to both 100 and 10 microgram/ml of peptide or sets of peptides (SI≧2 were regarded positive)) |
| EICDFLRGATVHRTLG [compound 47, EICDFLRGATVHRTLG] | high to intermediate relative affinity | < 1 | Peptide-induced proliferative response of PBMC, RA 191 [2]: pos (positive responses to both 100 and 10 microgram/ml of peptide or sets of peptides (SI≧2 were regarded positive)) |
| GTLAYYEICDFLRGAT [compound 46, GTLAYYEICDFLRGAT] | high to intermediate relative affinity | < 1 |  |
| HGFDGLDLAWLYPGRR [compound 19, HGFDGLDLAWLYPGRR] | high to intermediate relative affinity | 10 to 100 |  |
| NTQSRRTFIKSVPPFL [compound 16, NTQSRRTFIKSVPPFL] | high to intermediate relative affinity | < 1 | Peptide-induced proliferative response of PBMC, RA 286 [2]: pos (positive responses to both 100 and 10 microgram/ml of peptide or sets of peptides (SI≧2 were regarded positive)) |
| PASKLVMGIPTFGRSF [compound 39, PASKLVMGIPTFGRSF] | high to intermediate relative affinity | 1 to 10 |  |
| PPFLRTHGFDGLDLAW [compound 18, PPFLRTHGFDGLDLAW] | high to intermediate relative affinity | 10 to 100 | Peptide-induced proliferative response of PBMC, RA 276 ([2]; RA patient 276, 0401, R): pos (positive responses to both 100 and 10 microgram/ml of peptide or sets of peptides (SI≧2 were regarded positive)) |
| RGATVHRTLGQQVPYA [compound 48, RGATVHRTLGQQVPYA] | high to intermediate relative affinity | 10 to 100 |  |
| TFIKSVPPFLRTHGFD [compound 17, TFIKSVPPFLRTHGFD] | high to intermediate relative affinity | 1 to 10 |  |
| TIDSSYDIAKISQHLD [compound 28, TIDSSYDIAKISQHLD] | high to intermediate relative affinity | < 1 |  |
| VKSKVQYLKDRQLAGA [compound 53, VKSKVQYLKDRQLAGA] | high to intermediate relative affinity | < 1 |  |
| WALDLDDFQGSFCGQD [compound 56, WALDLDDFQGSFCGQD] | high to intermediate relative affinity | < 1 | Peptide-induced proliferative response of PBMC, RA 191 [2]: pos (positive responses to both 100 and 10 microgram/ml of peptide or sets of peptides (SI≧2 were regarded positive)); Peptide-induced proliferative response of PBMC, RA 286 [2]: pos (positive responses to both 100 and 10 microgram/ml of peptide or sets of peptides (SI≧2 were regarded positive)) |
| YREGDGSCFPDALDRF [peptide 3, YREGDGSCFPDALDRF] | high to intermediate relative affinity | 10 to 100 |  |
| B1 |  |  | binding result [3]: binds |
| B2 |  |  | binding result [3]: binds |
| B3 |  |  | binding result [3]: binds |
